Test results reported in ChEMBL document CHEMBL1201862, “PubChem BioAssay data set” (2004).
Calls of active or inactive are those of the source.

Legend:
[1] = Luminescence Cell-Based Dose Retest to Confirm Inhibitors of Cancer Stem Cells. [Related pubchem assays (depositor defined):AID2717, AID2721]; format: functional; details: Homo sapiens
[2] = target: Paired box protein Pax-8 (Homo sapiens, UniProt Q06710); experiment: inhibitors of PAX8-driven TPO luciferase reporter, dose response, RMG-I cells, cherry-pick (AID 687027); format: functional, cell-based;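 note: luciferase reporter driven by Pax8 target thyroperoxidase promoter measured by SteadyGlo luminescence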
[3] = nonselective inhibitors of cellular cAMP signaling, dose response, counter-screen for MC4R biased antagonist project, cell-based, TR-FRET cAMP detection (AID 602305); format: functional;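 note: U2OS cells stimulated with forskolin near its EC80 as the cAMP inducer; potency is for inhibition of forskolin-stimulated cAMP signaling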
[4] = target: Melanocortin receptor 4 (Homo sapiens, UniProt P32245); experiment: MC4R antagonist potency on cAMP, dose response, cell-based, TR-FRET, biased antagonists (AID 602298); format: functional;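 note: antagonist potency against agonist-stimulated cAMP production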
[5] = test system: INS1; experiment: beta cell apoptosis inhibitors, cytokine rescue, dose response, luminescence, retest (AID 449756); format: functional, cell-based; details: Rattus norvegicus;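 note: cell death triggered by IL-1 beta plus TNF-alpha plus IFN-gamma mixture; protective hits raise ATP signal compared with cytokine alone wells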
[6] = non-specific cell cytotoxicity, dose response, cytotoxicity control for PAX8 inhibitor project, plate reader, dry powder samples (AID 743021); format: functional, cell-based
[7] = target: Steroidogenic factor 1 (Homo sapiens, UniProt Q13285); experiment: Counterscreen for inverse agonists of the liver receptor homolog-1 (LRH-1; NR5A2): Luminescence-based cell-based high throughput dose response assay to identify inverse agonists of the Steroidogenic Factor 1 Nuclear Receptor (SF1; NR5A1).; format: functional
[8] = target: Nuclear receptor subfamily 5 group A member 2 (Homo sapiens, UniProt O00482); format: functional, cell-based;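 note: HEK293T cells transfected with LRH-1 and a StAR promoter luciferase reporter; potency for inhibitors that lower LRH-1 driven reporter light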
[9] = StAR promoter reporter inhibition counter-screen, dose response, counter-screen for LRH-1 inverse agonist project, cell-based, luminescence, luciferase reporter (AID 651969); format: functional
[10] = target: Arf-GAP with SH3 domain, ANK repeat and PH domain-containing protein 1 (Homo sapiens, UniProt Q9ULH1); format: functional;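 note: biochemical fluorescence polarization dose–response screen measuring inhibition of ASAP1; ASAP1 GAP domain stimulating GTP hydrolysis by truncated human ARF1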
[11] = target: T1, Corticotropin-releasing factor receptor 2/Corticotropin-releasing factor-binding protein (Homo sapiens, UniProt P24387+Q13324); experiment: Dose Response confirmation of uHTS hits for small molecule antagonists of the CRF-binding protein and CRF-R2 receptor complex.; format: functional; details: read-out: IC50_Mean
T1 sequence (Q13324 whole entry): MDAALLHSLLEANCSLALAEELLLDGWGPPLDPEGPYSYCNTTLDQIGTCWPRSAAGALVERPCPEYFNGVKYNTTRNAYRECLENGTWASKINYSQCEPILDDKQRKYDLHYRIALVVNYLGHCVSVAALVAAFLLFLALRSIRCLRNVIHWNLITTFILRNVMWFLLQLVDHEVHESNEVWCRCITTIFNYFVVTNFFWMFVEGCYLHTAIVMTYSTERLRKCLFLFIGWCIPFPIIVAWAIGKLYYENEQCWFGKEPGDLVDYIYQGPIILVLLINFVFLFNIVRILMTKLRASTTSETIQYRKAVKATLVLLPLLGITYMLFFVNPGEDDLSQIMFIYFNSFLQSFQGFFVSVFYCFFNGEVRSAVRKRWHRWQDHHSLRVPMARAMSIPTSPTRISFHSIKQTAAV
T1 sequence (P24387 whole entry): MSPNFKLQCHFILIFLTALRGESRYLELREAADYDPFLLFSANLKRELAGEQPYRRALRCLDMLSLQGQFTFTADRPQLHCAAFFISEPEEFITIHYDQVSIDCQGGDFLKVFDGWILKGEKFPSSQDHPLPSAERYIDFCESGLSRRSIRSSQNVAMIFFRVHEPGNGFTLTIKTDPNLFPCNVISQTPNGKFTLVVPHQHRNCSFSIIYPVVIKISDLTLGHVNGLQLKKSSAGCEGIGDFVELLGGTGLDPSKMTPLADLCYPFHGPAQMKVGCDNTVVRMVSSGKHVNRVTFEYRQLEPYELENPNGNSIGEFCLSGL

[12] = target: T2, Low molecular weight phosphotyrosine protein phosphatase (Homo sapiens, UniProt P24666); format: functional; details: read-out: IC50_Mean
T2 sequence (P24666 whole entry): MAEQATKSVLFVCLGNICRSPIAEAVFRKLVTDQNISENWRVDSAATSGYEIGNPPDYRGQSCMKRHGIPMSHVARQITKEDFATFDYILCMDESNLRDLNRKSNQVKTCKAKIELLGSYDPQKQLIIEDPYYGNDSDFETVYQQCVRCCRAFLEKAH

[13] = target: Tyrosine-protein phosphatase non-receptor type 11 (Homo sapiens, UniProt Q06124); experiment: SHP2 phosphatase inhibition, dose response, selectivity assay for STEP inhibitor project, biochemical (AID 602367); format: functional; details: read-out: IC50_Mean
[14] = target: Dual specificity protein phosphatase 3 (Homo sapiens, UniProt P51452); experiment: VHR phosphatase inhibition, dose response, selectivity assay for STEP inhibitor project, biochemical (AID 602374); format: functional; details: read-out: IC50_Mean
[15] = target: T1, Corticotropin-releasing factor receptor 2/Corticotropin-releasing factor-binding protein; experiment: activators of CRF receptor 2 with binding protein – uHTS hits, confirmation (AID 602473); format: functional; details: read-out: EC50_Mean
[16] = target: T2, Low molecular weight phosphotyrosine protein phosphatase; format: functional; details: read-out: IC50_Mean; remark: listed apart in the source
[17] = target: Tyrosine-protein phosphatase non-receptor type 5 (Homo sapiens, UniProt P54829); experiment: STEP phosphatase inhibitors, confirmation, biochemical, fluorescence intensity, uHTS hits (AID 602372); format: functional; details: read-out: IC50_Mean
[18] = target: T3, Small ubiquitin-related modifier 1 (Homo sapiens, UniProt P63165); experiment: inhibitors of SUMO1 peptide binding, dose response, biochemical, fluorescence polarization, uHTS hits (AID 624382); format: functional; details: read-out: IC50_Mean
[19] = target: T3, Small ubiquitin-related modifier 1; experiment: inhibitors of SUMO1 partner interactions, dose response, biochemical, FRET (AID 624383); format: functional; details: read-out: IC50_Mean
[20] = target: T4, Carboxy-terminal domain RNA polymerase II polypeptide A small phosphatase 1 (Homo sapiens, UniProt Q9GZU7); experiment: inhibitors of CTDSP1, concentration-response testing, biochemical assay, absorbance-based, actives from ultra-high-throughput screening (AID 540297); format: functional
T4 sequence (Q9GZU7 whole entry): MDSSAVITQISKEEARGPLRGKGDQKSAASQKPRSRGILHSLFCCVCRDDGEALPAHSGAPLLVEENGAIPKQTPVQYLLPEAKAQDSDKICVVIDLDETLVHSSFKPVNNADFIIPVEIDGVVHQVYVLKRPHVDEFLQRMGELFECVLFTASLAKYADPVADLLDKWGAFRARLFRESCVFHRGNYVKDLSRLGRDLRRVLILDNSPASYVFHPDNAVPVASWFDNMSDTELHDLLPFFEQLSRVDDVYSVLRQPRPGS

[21] = target: Adenosylmethionine-8-amino-7-oxononanoate aminotransferase (Mycobacterium tuberculosis, UniProt P9WQ81); experiment: Mycobacterium tuberculosis BioA enzyme inhibitor Measured in Biochemical System Using Plate Reader - 2163-02_Inhibitor_Dose_CherryPick_Activity.; format: functional, Mycobacterium tuberculosis UT205
[22] = target: T5, Replicative DNA helicase DnaB (Mycobacterium tuberculosis, UniProt P9WMR3); experiment: DnaB intein splicing inhibitors, dose response, biochemical, cell-free fluorescence (AID 449749); format: functional
T5 sequence (P9WMR3 whole entry): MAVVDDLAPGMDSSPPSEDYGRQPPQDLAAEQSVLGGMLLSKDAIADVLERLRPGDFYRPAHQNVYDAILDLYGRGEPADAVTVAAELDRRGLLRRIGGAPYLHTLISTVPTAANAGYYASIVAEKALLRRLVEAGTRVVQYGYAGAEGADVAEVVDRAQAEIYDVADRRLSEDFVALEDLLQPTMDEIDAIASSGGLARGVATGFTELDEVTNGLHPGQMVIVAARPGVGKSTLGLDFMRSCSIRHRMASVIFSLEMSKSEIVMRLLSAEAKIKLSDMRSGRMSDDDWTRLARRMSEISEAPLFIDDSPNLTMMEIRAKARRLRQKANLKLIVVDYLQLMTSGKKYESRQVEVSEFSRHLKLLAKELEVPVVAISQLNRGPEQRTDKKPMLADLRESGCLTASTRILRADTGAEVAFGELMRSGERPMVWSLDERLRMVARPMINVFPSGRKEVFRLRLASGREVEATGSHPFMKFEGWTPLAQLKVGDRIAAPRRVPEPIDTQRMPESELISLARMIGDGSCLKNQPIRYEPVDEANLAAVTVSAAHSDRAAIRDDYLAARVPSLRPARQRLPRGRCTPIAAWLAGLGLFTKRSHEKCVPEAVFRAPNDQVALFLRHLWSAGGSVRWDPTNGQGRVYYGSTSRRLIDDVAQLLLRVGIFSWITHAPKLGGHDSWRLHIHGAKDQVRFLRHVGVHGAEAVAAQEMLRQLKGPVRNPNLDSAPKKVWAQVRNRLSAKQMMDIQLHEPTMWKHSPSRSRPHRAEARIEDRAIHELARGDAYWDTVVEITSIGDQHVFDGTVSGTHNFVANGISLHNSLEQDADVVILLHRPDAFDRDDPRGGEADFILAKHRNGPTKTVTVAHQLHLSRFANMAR

[23] = Fluorescence-based cell-based high throughput dose response assay for inhibitors of the interaction of nucleotide-binding oligomerization domain containing 2 (NOD2) and the receptor-interacting serine-threonine kinase 2 (RIPK2).; format: functional; details: Homo sapiens
[24] = test system: BJ; experiment: cells; format: functional, cell-based; details: Homo sapiens
[25] = test system: BJ; experiment: cytotoxicity toward BJ-TERT-LT-ST fibroblasts, dose response, cell-based, RAS-independent, luminescence (AID 1935); format: functional; details: Homo sapiens;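 note: BJ fibroblasts immortalized with TERT plus LT and ST oncogenes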
[26] = target: T6, Protein RecA (Mycobacterium tuberculosis, UniProt P9WHJ3); experiment: Fluorescence Cell-Free Homogeneous Dose Retest to Identify Inhibitors of RecA-Intein Splicing Activity. [Related pubchem assays (depositor defined):AID2097, AID2223, AID489010, AID492950]; format: functional
T6 sequence (P9WHJ3 whole entry): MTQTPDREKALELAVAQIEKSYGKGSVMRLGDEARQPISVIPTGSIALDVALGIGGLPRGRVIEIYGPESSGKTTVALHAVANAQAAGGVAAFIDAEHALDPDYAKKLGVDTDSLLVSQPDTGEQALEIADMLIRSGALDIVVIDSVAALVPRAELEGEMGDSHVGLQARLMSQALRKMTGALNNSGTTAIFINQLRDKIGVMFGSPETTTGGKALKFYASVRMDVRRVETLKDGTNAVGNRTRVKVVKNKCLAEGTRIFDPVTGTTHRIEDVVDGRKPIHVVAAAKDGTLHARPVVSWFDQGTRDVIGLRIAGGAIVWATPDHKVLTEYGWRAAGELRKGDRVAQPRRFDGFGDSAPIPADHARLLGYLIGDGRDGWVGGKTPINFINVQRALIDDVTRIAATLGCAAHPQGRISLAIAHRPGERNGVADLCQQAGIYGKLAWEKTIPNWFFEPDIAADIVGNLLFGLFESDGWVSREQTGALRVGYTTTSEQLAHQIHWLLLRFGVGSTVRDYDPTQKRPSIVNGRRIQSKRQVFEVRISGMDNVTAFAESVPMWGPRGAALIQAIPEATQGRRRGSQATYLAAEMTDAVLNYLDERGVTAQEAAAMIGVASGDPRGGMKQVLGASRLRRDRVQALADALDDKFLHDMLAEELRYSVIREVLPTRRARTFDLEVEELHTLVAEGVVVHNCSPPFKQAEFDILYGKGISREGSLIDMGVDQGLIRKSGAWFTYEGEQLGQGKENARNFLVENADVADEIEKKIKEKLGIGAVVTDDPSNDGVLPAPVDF

[27] = cytotoxicity toward DRD oncogenic fibroblasts, dose response, cell-based, non-viral oncogenic, luminescence (AID 1934); format: functional; details: Homo sapiens
[28] = test system: BJ; experiment: cytotoxicity toward Ras-transformed BJeLR fibroblasts, dose response, cell-based, alamar blue fluorescence, cherrypicked samples (AID 2631); format: functional; details: Homo sapiens;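 note: confirmatory dose-response assay in RAS-dependent BJ fibroblasts engineered with TERT, LT and ST, with cytotoxicity read by fluorescence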
[29] = test system: BJ; experiment: cytotoxicity toward BJ-TERT fibroblasts, dose response, cell-based, RAS-independent, luminescence (AID 1933); format: functional; details: Homo sapiens
[30] = target: Heat shock protein HSP 90-alpha (Homo sapiens, UniProt P07900); format: functional, organism-based

Sequence of Tyrosine-protein phosphatase non-receptor type 5 (P54829 whole entry): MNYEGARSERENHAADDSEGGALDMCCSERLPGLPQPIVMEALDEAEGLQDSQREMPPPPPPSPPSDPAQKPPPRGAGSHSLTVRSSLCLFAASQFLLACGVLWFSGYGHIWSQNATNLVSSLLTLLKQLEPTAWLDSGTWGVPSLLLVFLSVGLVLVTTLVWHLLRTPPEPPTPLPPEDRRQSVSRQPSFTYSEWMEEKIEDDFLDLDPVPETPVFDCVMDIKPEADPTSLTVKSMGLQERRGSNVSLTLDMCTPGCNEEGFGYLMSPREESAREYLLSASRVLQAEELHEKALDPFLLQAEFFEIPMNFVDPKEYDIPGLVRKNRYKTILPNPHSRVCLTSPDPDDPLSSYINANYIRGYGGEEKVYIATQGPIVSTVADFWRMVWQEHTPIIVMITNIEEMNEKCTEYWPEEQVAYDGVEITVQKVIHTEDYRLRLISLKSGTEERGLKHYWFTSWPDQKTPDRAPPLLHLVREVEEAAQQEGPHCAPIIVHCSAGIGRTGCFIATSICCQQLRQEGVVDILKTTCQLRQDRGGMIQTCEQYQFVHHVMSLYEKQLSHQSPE
Sequence of Arf-GAP with SH3 domain, ANK repeat and PH domain-containing protein 1 (Q9ULH1 whole entry, the tested form may be a part): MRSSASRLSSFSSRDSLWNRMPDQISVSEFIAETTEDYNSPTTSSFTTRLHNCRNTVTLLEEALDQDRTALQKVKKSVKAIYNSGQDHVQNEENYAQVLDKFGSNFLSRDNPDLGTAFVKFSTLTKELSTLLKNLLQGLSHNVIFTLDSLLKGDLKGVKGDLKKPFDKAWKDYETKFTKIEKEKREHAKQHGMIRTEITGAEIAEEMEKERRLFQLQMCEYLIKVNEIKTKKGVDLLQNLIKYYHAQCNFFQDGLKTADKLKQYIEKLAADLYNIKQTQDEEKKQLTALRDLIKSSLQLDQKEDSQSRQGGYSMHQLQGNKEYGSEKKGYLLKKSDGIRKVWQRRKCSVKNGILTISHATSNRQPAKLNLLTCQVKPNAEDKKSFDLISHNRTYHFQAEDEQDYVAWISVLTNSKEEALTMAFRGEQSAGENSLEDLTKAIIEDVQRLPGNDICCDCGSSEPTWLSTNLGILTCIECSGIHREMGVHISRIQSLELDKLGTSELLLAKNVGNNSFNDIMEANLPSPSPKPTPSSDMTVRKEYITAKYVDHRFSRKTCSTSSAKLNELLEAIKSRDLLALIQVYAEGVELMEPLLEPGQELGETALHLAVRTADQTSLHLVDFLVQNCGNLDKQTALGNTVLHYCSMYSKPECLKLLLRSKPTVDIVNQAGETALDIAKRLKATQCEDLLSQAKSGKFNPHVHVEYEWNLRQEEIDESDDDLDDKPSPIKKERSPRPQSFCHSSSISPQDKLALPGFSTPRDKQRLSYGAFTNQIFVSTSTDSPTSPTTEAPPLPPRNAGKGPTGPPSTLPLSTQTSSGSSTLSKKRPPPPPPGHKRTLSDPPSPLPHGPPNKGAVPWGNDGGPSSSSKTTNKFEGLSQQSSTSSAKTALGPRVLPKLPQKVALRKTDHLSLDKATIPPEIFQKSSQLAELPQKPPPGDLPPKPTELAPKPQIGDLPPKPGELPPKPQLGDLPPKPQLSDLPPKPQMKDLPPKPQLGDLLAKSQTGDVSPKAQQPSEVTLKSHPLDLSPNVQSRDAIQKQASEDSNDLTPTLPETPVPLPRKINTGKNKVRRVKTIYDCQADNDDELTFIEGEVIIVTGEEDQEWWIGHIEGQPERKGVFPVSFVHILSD
T3 sequence (P63165 whole entry): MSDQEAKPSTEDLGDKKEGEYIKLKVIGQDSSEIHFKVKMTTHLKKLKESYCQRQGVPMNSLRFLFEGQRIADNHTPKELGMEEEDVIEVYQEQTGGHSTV
Sequence of Dual specificity protein phosphatase 3 (P51452 whole entry): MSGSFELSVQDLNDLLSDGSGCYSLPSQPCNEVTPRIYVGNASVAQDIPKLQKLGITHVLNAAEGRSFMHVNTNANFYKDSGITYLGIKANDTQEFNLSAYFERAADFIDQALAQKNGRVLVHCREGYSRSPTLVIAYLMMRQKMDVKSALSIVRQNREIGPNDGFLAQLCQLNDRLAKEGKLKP
Sequence of Nuclear receptor subfamily 5 group A member 2 (O00482 whole entry): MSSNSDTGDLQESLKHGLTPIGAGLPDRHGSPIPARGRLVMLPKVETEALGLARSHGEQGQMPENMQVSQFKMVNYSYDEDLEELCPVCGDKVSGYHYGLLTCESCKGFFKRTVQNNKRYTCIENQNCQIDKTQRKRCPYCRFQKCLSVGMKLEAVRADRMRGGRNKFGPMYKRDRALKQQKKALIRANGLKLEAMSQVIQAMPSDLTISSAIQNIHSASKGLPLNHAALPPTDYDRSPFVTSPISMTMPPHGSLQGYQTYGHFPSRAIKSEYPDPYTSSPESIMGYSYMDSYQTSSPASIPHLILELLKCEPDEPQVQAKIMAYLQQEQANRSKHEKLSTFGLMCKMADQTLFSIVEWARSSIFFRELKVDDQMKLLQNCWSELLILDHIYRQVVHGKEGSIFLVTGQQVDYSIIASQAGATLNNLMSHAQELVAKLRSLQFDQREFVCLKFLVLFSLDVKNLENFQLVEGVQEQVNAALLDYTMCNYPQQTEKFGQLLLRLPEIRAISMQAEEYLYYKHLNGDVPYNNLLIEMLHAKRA
Sequence of Tyrosine-protein phosphatase non-receptor type 11 (Q06124 whole entry): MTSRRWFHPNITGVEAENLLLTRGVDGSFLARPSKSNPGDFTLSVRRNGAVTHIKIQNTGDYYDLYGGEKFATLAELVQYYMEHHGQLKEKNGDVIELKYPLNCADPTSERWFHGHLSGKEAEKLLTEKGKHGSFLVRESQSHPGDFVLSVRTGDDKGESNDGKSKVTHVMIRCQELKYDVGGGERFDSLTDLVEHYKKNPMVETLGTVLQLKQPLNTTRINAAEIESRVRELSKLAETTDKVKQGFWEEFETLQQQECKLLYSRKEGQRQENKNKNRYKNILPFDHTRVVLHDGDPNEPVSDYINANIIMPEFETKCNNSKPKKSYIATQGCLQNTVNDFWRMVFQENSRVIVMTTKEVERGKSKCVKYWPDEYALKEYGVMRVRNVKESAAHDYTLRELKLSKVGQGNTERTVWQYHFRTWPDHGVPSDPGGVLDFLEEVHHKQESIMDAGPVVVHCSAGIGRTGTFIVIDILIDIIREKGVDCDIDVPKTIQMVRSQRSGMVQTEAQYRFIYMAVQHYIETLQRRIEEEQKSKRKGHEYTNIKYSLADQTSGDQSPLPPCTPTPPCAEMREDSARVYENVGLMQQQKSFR
Sequence of Adenosylmethionine-8-amino-7-oxononanoate aminotransferase (P9WQ81 whole entry): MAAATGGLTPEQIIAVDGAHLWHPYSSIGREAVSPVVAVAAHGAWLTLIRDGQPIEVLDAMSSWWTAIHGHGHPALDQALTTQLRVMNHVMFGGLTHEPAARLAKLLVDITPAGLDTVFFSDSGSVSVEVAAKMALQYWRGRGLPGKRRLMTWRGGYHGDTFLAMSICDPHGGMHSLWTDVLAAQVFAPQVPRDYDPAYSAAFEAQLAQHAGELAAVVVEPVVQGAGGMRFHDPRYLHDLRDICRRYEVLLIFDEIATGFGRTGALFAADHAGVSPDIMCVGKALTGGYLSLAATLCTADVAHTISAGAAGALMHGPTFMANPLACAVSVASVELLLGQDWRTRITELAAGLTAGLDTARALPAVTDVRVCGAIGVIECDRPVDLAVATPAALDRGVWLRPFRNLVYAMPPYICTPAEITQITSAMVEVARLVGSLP
Sequence of Steroidogenic factor 1 (Q13285 whole entry): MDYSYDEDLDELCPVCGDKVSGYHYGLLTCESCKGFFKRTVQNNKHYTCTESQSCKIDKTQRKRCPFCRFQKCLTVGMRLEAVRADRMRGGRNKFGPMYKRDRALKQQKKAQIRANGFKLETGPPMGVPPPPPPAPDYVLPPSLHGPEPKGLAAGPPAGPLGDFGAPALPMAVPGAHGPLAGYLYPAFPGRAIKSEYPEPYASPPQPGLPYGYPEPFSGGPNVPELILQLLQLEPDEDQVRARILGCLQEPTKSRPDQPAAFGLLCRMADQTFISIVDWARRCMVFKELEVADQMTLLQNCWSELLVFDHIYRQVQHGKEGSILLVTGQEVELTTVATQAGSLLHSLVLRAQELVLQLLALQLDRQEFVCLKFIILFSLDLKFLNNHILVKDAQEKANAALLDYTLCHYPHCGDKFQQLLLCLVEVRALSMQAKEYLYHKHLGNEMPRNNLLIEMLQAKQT
Sequence of Melanocortin receptor 4 (P32245 whole entry): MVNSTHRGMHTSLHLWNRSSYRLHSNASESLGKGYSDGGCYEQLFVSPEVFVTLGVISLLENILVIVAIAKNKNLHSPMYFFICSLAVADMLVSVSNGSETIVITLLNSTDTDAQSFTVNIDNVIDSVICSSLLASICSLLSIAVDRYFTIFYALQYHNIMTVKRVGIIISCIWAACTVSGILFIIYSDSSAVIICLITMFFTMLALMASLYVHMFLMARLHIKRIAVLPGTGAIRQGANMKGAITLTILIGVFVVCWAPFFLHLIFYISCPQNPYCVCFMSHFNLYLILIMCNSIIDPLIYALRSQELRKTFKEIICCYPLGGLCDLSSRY
Sequence of Paired box protein Pax-8 (Q06710 whole entry): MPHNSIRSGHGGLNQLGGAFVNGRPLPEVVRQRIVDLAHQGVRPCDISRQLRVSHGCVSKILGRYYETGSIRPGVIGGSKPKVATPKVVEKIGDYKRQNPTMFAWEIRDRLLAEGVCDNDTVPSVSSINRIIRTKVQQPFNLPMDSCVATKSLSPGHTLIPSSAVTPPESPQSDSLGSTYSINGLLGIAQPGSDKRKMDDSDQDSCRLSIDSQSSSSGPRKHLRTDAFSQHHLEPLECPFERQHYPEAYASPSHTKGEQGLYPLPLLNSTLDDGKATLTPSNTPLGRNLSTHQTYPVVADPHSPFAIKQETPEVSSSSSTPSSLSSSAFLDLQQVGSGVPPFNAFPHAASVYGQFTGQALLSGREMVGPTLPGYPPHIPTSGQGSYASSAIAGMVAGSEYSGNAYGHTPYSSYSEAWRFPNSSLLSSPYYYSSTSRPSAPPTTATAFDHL

C=C1CCc2c([nH]c3ccc(OCC(C)C)cc23)C1=O
AC50 [1]: 2.08 µM (active) | AC50 [2]: 6.14 µM (active) | IC50 [3]: > 64.6 µM (inactive) | IC50 [4]: 6.05 µM (active) | AC50 [5]: 3.69 µM (active) | AC50 [6]: 35.6 µM (active)

O=C(CCl)NCCCN(C(=O)C(Cl)Cl)c1ccc([N+](=O)[O-])cc1
IC50 [7]: 4.97 µM (active) | IC50 [8]: 7.45 µM (active) | IC50 [9]: 18.8 µM (inactive)

COc1ccc(C(=O)Nc2nc3cc4c(cc3s2)OCO4)c(OC)c1
IC50 [10]: 50.8 µM (inactive)

O=[N+]([O-])c1ccc(O)c(Nc2ncnc3ccccc23)c1
IC50 [11]: > 47.1 µM (inactive) | IC50 [12]: 16.1 µM (active) | IC50 [13]: 1.98 µM (active) | IC50 [14]: 1.77 µM (active) | EC50 [15]: > 53 µM (inactive) | IC50 [16]: 7.06 µM (active) | IC50 [17]: 13.3 µM (active)

Cc1ccc2cccc(OCC(=O)NCCC3=CCCCC3)c2n1
IC50 [7]: 2.83 µM (active) | IC50 [8]: 4.06 µM (active) | IC50 [9]: 35.8 µM (inactive)

COCCNc1nc(NCc2cc(-c3ccc(OC)cc3)no2)c2sccc2n1
IC50 [12]: 9.53 µM (active) | IC50 [16]: 23.3 µM (inactive)

O=C(N/N=C/c1ccc(Cl)c([N+](=O)[O-])c1)c1ccc2c(c1)OCCO2
IC50 [13]: 1.93 µM (active) | IC50 [14]: 2.29 µM (active) | IC50 [18]: > 66.6 µM (inactive) | IC50 [10]: 10.9 µM (inactive) | IC50 [17]: 7.3 µM (active) | IC50 [19]: 9.57 µM (active) | IC50 [20]: 4.44 µM (active)

O=C(Nc1ccc2c(c1)[C@H]1C[C@@H](CC(=O)N3CCc4ccccc4C3)O[C@@H](CO)[C@H]1O2)c1cccnc1
AC50 [21]: 10.5 µM (active)

COCCNC(=O)C[C@H]1CC[C@@H]2[C@@H](COc3ccc(NC(=O)Nc4cccc(F)c4)cc3C(=O)N2C)O1
AC50 [21]: 5.19 µM (active)

O=[N+]([O-])c1cc(Br)c(Nc2ccccc2)c([N+](=O)[O-])c1
AC50 [22]: 5.68 µM (active) | IC50 [23]: 2.12 µM (active) | EC50 [24]: 2.57 µM (inconclusive) | EC50 [25]: 28.3 µM (inconclusive) | EC50 [26]: 5.15 µM (active) | EC50 [27]: 4.5 µM (active) | EC50 [28]: 1.37 µM (active) | EC50 [29]: 5.53 µM (inconclusive) | AC50 [30]: 7.5 µM (active)
